Results on 2 compounds are retold here after paper PMC7429951 (Journal of Medicinal Chemistry, 2020).

Where two headings read alike, the source gives them in different places. Bounds are passed on as bounds.

The target of data set [1] is T1, LasB (Pseudomonas aeruginosa, UniProt Q02RJ6). The note with it: read-out: IC50 (LasB); literature inhibitor; cited from earlier work.
Another data set has as its target T2, HDAC-3 (Homo sapiens, UniProt O15379).
T2 construct: purchased Sigma-Aldrich (Saint Louis, MO)
Put plainly: HDAC-3 inhibitor screening kit. The data set is classed as biochemical. The text has this: (§1) Previously, we described N-aryl mercaptoacetamides with high selectivity for the bacterial over a broad range of human MMPs.[29],[30] MMPs are calcium-dependent zinc metalloproteases that play a pivotal role in numerous biochemical processes in humans.[39],[40] Based on the depth of their S1′ binding pocket, MMPs can be divided into three classes: deep (e.g., MMP-3 and -14), intermediate (e.g., MMP-2 and -8), and shallow (e.g., MMP-1 and -7). With the aim to explore the interactions of our inhibitors with all three pocket types, which could help us to assess potential effects on other not-tested representatives, we chose a panel of six MMPs, comprising two members of each class. In addition, HDAC-3, HDAC-8, and TACE (ADAM-17)—enzymes involved in gene expression and the processing of TNF-α,[41],[42] respectively—were selected as important additional human off-targets.

In a further data set the target is MMP-8 (Homo sapiens, UniProt P22894). Put plainly: MMP-8 off-target inhibition. The data set is classed as biochemical.
Chain of MMP-8 (P22894 101-467): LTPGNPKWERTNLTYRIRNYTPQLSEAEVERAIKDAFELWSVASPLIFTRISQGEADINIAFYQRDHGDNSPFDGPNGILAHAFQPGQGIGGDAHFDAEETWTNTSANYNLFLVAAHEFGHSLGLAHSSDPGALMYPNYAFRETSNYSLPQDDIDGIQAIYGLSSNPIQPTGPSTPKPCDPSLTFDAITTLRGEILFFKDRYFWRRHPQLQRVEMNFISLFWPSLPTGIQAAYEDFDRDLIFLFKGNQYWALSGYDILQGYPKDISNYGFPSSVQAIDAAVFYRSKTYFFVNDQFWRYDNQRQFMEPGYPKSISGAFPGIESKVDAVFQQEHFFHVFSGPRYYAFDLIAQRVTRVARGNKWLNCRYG
Description: as §1

Data set [2] concerns the target T1, LasB.
In the next data set the target is T3, TACE (ADAM-17) (Homo sapiens, UniProt P78536).
T3 construct: purchased Sigma-Aldrich (Saint Louis, MO)
T3 sequence (P78536 215-824): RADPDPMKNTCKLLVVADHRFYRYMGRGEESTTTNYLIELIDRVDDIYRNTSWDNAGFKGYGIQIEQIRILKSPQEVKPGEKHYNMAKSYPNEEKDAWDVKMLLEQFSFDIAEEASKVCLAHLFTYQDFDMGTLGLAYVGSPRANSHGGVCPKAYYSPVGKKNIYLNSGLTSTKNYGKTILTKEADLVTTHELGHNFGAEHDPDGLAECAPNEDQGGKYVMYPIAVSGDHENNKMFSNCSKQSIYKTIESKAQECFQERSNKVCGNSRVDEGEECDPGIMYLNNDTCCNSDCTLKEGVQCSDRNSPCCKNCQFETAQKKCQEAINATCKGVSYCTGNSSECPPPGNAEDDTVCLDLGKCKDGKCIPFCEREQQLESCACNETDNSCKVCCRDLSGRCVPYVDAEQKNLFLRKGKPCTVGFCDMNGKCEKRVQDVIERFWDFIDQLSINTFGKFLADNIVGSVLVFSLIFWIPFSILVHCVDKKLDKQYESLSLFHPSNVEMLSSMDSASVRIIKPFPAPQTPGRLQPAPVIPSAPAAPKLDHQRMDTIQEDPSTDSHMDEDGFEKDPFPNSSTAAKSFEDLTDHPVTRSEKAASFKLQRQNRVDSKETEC
Put plainly: TACE inhibitor screening kit. The data set is classed as biochemical.
Description: as §1

The test system of data set [3] is P. aeruginosa strain PA14. Put plainly: Bacterial growth inhibition assay (MIC) P. aeruginosa. Type of data set: cell-based, Pseudomonas aeruginosa.
The target of the next data set is MMP-3 (Homo sapiens, UniProt P08254). Put plainly: MMP-3 off-target inhibition. The data set is classed as biochemical. The following applies: read-out: MMP-3 % inhibition @ 100 μM; 100 μM compound.
Chain of MMP-3 (P08254 100-477): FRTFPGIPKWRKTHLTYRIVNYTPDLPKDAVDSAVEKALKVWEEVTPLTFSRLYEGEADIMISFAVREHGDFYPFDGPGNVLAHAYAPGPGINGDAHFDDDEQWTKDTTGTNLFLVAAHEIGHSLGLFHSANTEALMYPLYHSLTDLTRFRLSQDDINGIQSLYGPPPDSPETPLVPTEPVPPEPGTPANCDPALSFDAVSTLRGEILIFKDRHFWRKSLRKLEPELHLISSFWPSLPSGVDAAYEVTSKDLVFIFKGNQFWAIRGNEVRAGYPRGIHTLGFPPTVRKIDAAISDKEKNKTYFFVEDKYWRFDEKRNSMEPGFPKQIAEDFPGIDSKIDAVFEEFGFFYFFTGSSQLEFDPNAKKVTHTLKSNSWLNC
Description: as §1

Data set [4] concerns the target T1, LasB. Put plainly: biochemical. The following applies: LasB IC50, FRET-based assay.
A short description of data set [5]: in vitro. The following applies: human, HepG2 cells (hepatocellular carcinoma).
Another data set has as its target T4, MMP-7 (Homo sapiens, UniProt P09237).
T4 sequence (P09237 95-267): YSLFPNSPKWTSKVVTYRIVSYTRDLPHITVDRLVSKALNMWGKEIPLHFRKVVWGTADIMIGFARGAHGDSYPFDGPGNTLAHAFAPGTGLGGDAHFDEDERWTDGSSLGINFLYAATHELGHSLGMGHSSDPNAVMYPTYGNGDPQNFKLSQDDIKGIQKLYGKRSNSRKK
Put plainly: MMP-7 off-target inhibition. Type of data set: biochemical. The note with it: read-out: MMP-7 % inhibition @ 100 μM; 100 μM compound.
Description: as §1

Data set [6] is described as follows: in vitro. The note with it: human, HEK293 cells (embryonal kidney).
Another data set concerns the target MMP-14 (Homo sapiens, UniProt P50281). Put plainly: MMP-14 off-target inhibition. Type of data set: biochemical.
Description: as §1

Another data set concerns the target T5, MMP-2 (Homo sapiens, UniProt P08253).
T5 sequence (P08253 110-660): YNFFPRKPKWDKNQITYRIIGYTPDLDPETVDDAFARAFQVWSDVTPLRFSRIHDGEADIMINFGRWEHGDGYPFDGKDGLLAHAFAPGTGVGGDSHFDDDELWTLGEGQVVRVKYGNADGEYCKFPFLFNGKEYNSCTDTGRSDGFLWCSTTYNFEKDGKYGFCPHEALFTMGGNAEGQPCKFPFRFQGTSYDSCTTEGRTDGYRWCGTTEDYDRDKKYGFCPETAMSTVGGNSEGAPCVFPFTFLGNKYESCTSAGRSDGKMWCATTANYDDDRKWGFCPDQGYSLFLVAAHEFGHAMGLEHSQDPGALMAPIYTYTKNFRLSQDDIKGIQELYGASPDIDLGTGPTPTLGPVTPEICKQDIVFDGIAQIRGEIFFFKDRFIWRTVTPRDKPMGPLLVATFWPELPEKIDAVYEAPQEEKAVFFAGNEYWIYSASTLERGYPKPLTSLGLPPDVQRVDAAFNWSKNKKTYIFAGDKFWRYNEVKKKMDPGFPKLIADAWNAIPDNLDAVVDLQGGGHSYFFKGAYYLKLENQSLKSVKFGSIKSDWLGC
Put plainly: MMP-2 off-target inhibition. Type of data set: biochemical.
Description: as §1

The target of another data set is T6, MMP-1 (Homo sapiens, UniProt P03956).
T6 sequence (P03956 100-469): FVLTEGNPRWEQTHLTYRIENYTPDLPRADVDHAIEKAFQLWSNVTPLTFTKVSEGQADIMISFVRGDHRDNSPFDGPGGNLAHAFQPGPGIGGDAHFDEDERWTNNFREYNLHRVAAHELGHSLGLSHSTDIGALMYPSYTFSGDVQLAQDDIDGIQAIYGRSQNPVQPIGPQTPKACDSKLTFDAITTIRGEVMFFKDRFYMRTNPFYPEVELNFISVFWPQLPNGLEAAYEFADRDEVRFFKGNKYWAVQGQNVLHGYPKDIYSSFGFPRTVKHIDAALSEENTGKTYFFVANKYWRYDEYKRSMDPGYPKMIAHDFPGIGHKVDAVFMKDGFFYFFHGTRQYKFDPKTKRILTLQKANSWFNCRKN
Put plainly: MMP-1 off-target inhibition. Type of data set: biochemical. The note with it: read-out: MMP-1 % inhibition @ 100 μM; 100 μM compound.
Description: as §1

Data set [7] has as its target peptidase domain of ColH (ColH-PD) (Hathewaya histolytica, UniProt Q46085). Put plainly: biochemical. The following applies: read-out: ColH-PD % inhibition @ 1 μM. Set-up: species or system Clostridium histolyticum.
Data set [8] can be described thus: in vitro. The following applies: human, A549 cells (lung carcinoma).
Another data set concerns the target T7, HDAC-8 (Homo sapiens, UniProt Q9BY41).
T7 construct: purchased Sigma-Aldrich (Saint Louis, MO)
T7 sequence (Q9BY41 1-377): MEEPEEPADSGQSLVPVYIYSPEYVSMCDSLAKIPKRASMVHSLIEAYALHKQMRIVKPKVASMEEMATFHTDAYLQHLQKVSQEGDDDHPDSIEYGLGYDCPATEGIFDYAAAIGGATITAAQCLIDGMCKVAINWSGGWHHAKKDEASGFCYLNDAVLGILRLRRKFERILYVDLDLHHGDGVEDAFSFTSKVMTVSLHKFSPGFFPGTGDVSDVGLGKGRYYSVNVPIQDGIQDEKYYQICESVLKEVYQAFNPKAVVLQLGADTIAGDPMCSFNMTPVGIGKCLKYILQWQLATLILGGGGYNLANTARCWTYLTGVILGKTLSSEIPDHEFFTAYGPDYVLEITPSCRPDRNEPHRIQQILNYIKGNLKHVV
Put plainly: HDAC-8 inhibitor screening kit. The data set is classed as biochemical.
Description: as §1

T1 sequence (Q02RJ6 198-498): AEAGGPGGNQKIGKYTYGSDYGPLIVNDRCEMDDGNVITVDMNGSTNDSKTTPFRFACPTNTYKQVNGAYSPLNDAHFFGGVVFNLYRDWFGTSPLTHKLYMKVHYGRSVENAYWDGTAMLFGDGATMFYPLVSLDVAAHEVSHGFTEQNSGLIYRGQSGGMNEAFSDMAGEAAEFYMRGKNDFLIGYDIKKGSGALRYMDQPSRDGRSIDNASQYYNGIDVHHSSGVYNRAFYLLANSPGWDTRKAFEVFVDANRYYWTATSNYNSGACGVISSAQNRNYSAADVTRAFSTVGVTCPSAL
Chain of peptidase domain of ColH (ColH-PD) (Q46085 331-721 limits assumed): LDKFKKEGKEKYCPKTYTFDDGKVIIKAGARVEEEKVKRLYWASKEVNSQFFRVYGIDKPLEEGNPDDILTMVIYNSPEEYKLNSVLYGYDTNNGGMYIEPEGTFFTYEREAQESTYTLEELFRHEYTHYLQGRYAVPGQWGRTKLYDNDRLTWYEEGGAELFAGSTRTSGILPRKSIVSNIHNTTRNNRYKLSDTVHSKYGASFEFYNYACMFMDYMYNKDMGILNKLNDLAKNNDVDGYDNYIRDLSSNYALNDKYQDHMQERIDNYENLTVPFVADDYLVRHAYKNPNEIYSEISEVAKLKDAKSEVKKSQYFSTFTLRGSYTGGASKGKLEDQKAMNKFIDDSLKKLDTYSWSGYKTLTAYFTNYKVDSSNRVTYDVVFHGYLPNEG
T2 sequence (O15379 whole entry): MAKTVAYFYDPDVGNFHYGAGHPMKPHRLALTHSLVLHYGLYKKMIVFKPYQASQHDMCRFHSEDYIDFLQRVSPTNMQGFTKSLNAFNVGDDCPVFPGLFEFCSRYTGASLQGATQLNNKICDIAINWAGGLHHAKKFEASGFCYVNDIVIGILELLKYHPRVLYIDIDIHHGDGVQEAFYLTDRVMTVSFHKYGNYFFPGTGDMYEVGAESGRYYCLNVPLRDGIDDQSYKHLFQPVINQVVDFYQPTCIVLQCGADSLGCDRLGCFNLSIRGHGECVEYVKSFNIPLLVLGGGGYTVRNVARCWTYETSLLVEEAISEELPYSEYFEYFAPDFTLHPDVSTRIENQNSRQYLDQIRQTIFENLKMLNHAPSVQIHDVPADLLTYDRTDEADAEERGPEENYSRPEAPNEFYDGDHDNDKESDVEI
T2 sequence (Q9Y618 395-489 partner limits assumed): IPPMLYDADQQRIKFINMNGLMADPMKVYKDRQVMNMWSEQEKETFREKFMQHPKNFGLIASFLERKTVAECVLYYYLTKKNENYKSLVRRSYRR

For the compound `Cc1c(O)c(=S)ccn1Cc1ccc(-c2ccccc2)cc1` [Compound 1], the IC50 at LasB [1] was 2.73 ± 0.03 µM.
For `O=C1CC(S)C(=O)N1c1ccc(Cl)c(Cl)c1` (stereo not drawn) [Compound 13, 1-(3,4-Dichlorophenyl)-3-mercaptopyrrolidine-2,5-dione], the IC50 is above 100 µM on HDAC-3; 5.2 ± 0.6 µM against TACE (ADAM-17); 3.4 ± 0.2 µM against LasB [4]; above 100 µM in “in vitro [5]”; above 100 µM in the data set “in vitro [6]”; above 100 µM in “in vitro [8]”. Further, on HDAC-8, the half-inhibitory concentration (IC50) was above 100 µM. The inhibition at 50 µM on MMP-8 (50 µM compound, read-out: MMP-8 % inh @50µM) was below 10%; at MMP-14 (50 µM compound, read-out: MMP-14 % inh @50µM), below 10%; at MMP-2 (50 µM compound, read-out: MMP-2 % inh @50µM), below 10%. The inhibition at 100 µM on MMP-8 (read-out: MMP-8 % inhibition @ 100 μM, 100 μM compound) is 84 ± 8%; at MMP-3 it was below 10%; on MMP-7 it was below 10%; at MMP-14 (read-out: MMP-14 % inhibition @ 100 μM, 100 μM compound) it was below 10%; at MMP-2 (read-out: MMP-2 % inhibition @ 100 μM, 100 μM compound), 39 ± 32%; at MMP-1, below 10%. At LasB [2], the “improved activity against LasB compared to previous hit 5” value is “two-fold”. The MIC in data set [3] and in data set [3] (Pseudomonas aeruginosa) was above 100 µM throughout. For the same compound, in [7], the inhibition at 1 µM was 12 ± 2%.

Broadly, the IC50 is the point on the concentration scale where inhibition reaches its midpoint. Broadly, the MIC is the lowest concentration that inhibits growth of the organism. Higher therefore signals a less susceptible organism.
